Data as given in patent US10526287B2, “LSD1 inhibitors and uses thereof” (Constellation Pharmaceuticals, Inc., priority 2015, dated 2020).
Counter-ions that a name gives are not always drawn.

Target: LSD1 (Homo sapiens, UniProt O60341)
Experiment: Biochemical assay for LSD1 activity (LSD1 demethylase TR-FRET)
Conditions: Table 5; biotinylated H3K4me1 peptide, 50 minutes at room temperature, TR-FRET; read-out: LSD1_Pep_TR-FRET_1.0 (IC50 T50)

Question: With F/C(=C\c1ccccc1)C1CC1NCC1CCNCC1 (racemic) [Compound 108, Racemic 2-((Z)-1-fluoro-2-phenylvinyl)-N-(piperidin-4-ylmethyl)cyclopropanamine Dihydrochloride] as the compound, how does the IC50 read?
Answer: Its IC50 is 0.1 to 1 µM.

Same assay, conditions: Table 6; biotinylated H3K4me1 peptide, 50 minutes at room temperature, TR-FRET; read-out: LSD1_Pep_TR-FRET_1.0 (IC50 T50)

Question: With CC/C(=C\c1ccccc1)[C@@H]1C[C@H]1NCC1CCN(Cc2ccc(C(=O)OC(C)(C)C)cc2)CC1 (racemic) [Compound 127] as the compound, how does the IC50 read?
Answer: Its IC50 is 0.1 to 1 µM.

Question: How did the IC50 turn out when CC/C(=C\c1ccccc1)[C@@H]1C[C@H]1NC1CCN(Cc2ccc(C(=O)O)cc2)CC1 (racemic) [Compound 128, 4-((4-(((trans)-2-((E)-1-phenylbut-1-en-2-yl)cyclopropyl)amino)piperidin-1-yl)methyl)benzoic acid bis-trifluoroacetic acid salt] was run?
Answer: Its IC50 is under 0.1 µM.

Question: How did the IC50 turn out when C/C(=C\c1ccccc1)[C@@H]1C[C@H]1NC1CCN(Cc2ccc[nH]c2=O)CC1 (racemic) [Compound 134, 3-((4-(((trans)-2-((E)-1-phenylprop-1-en-2-yl)cyclopropyl)amino)piperidin-1-yl)methyl)pyridin-2(1H)-one bis(2,2,2-trifluoroacetate)] was run?
Answer: Its IC50 is under 0.1 µM.

Question: Which IC50 does the source give for C/C(=C\c1ccccc1)[C@@H]1C[C@H]1NCC1CCN(CCC#N)CC1 (racemic) [Compound 135, 3-(4-((((trans)-2-((E)-1-phenylprop-1-en-2-yl)cyclopropyl)amino)methyl)piperidin-1-yl)propanenitrile dihydrochloride] here?
Answer: Its IC50 is under 0.1 µM.

Question: For CNC(=O)c1ccc(CN2CCC(N[C@@H]3C[C@H]3/C(C)=C/c3ccccc3)CC2)cc1 (racemic) [Compound 136, N-methyl-4-((4-(((trans)-2-((E)-1-phenylprop-1-en-2-yl)cyclopropyl)amino)piperidin-1-yl)methyl)benzamide dihydrochloride], which IC50 is on record?
Answer: The IC50 was under 0.1 µM.

Question: C/C(=C\c1ccccc1)[C@@H]1C[C@H]1NC1CCN(Cc2ccc(C(N)=O)cc2)CC1 (racemic) [Compound 137, 4-((4-(((trans)-2-((E)-1-phenylprop-1-en-2-yl)cyclopropyl)amino)piperidin-1-yl)methyl)benzamide dihydrochloride] was tested. Which IC50 did it give?
Answer: Its IC50 is under 0.1 µM.

Question: CC/C(=C\c1ccccc1)[C@@H]1C[C@H]1NCC1CCN(Cc2ccc(C(=O)O)cc2)CC1 (racemic) [Compound 163, 4-((4-((((trans)-2-((E)-1-phenylbut-1-en-2-yl)cyclopropyl)amino)methyl)piperidin-1-yl)methyl)benzoic acid bis trifluoroacetic acid salt] was tested. Which IC50 did it give?
Answer: The IC50 was under 0.1 µM.

Question: How did the IC50 turn out when C/C(=C\c1ccccc1)[C@@H]1C[C@H]1N[C@H]1CC[C@H](NCCCC(=O)O)CC1 (racemic) [Compound 164, 4-(((trans)-4-(((trans)-2-((E)-1-phenylprop-1-en-2-yl)cyclopropyl)amino)cyclohexyl)amino)butanoic Acid bis(trifluoroacetic Acid) Salt] was run?
Answer: The IC50 was under 0.1 µM.

Question: Which IC50 does the source give for C/C(=C\c1ccccc1)[C@@H]1C[C@H]1N[C@H]1CC[C@@H](NCCCC(=O)O)CC1 (racemic) [Compound 165, 4-(((cis)-4-(((trans)-2-((E)-1-phenylprop-1-en-2-yl)cyclopropyl)amino)cyclohexyl)amino)butanoic Acid bis(trifluoroacetic Acid) Salt] here?
Answer: Its IC50 is under 0.1 µM.

Question: Which IC50 does the source give for CC/C(=C\c1ccccc1)[C@@H]1C[C@H]1N[C@H]1CC[C@@H](N)CC1 (racemic) [Compound 168, (cis)-N^1-((trans)-2-((E)-1-phenylbut-1-en-2-yl)cyclopropyl)cyclohexane-1,4-diamine Dihydrochloride] here?
Answer: Its IC50 is under 0.1 µM.

Question: How did the IC50 turn out when CC/C(=C\c1ccccc1)[C@@H]1C[C@H]1N[C@H]1CC[C@H](N)CC1 (racemic) [Compound 169, (trans)-N^1-((trans)-2-((E)-1-phenylbut-1-en-2-yl)cyclopropyl)cyclohexane-1,4-diamine Dihydrochloride] was run?
Answer: The IC50 was under 0.1 µM.

Question: For C/C(=C\c1ccc(-c2cnn(C)c2)cc1)[C@@H]1C[C@H]1NC1CCNCC1 (racemic) [Compound 175], which IC50 is on record?
Answer: Its IC50 is under 0.1 µM.

Question: With CC/C(=C\c1ccccc1)[C@@H]1C[C@H]1N[C@H]1CC[C@@H](NCc2ccc(C(=O)O)cc2)CC1 (racemic) [Compound 176, 4-((((trans)-4-(((trans)-2-((E)-1-phenylbut-1-en-2-yl)cyclopropyl)amino)cyclohexyl)amino)methyl)benzoic Acid Dihydrochloride] as the compound, how does the IC50 read?
Answer: Its IC50 is under 0.1 µM.

Question: Which IC50 does the source give for CC(C)/C(=C\c1ccccc1)[C@H]1C[C@@H]1N[C@H]1CC[C@H](N)CC1 (racemic) [Compound 178, (trans)-N^1-((trans)-2-(E)-3-methyl-1-phenylbut-1-en-2-yl)cyclopropyl)cyclohexane-1,4-diamine Dihydrochloride] here?
Answer: The IC50 was under 0.1 µM.

Question: Which IC50 does the source give for CC(C)/C(=C\c1ccccc1)[C@@H]1C[C@H]1NC1CCN(Cc2ccc(C(=O)O)cc2)CC1 (racemic) [Compound 179, 4-((4-(((trans)-2-((E)-3-methyl-1-phenylbut-1-en-2-yl)cyclopropyl)amino)piperidin-1-yl)methyl)benzoic Acid bis(trifluoroacetic Acid) Salt] here?
Answer: The IC50 was under 0.1 µM.

Question: For CC/C(=C\c1ccccc1)[C@@H]1C[C@H]1N[C@H]1CC[C@H](NCC(=O)O)CC1 (racemic) [Compound 182, 2-(((trans)-4-(((trans)-2-((E)-1-phenylbut-1-en-2-yl)cyclopropyl)amino)cyclohexyl)amino)acetic acid], which IC50 is on record?
Answer: Its IC50 is under 0.1 µM.

Question: Which IC50 does the source give for CC/C(=C\c1ccccc1)[C@@H]1C[C@H]1N[C@H]1CC[C@@H](NCC(=O)O)CC1 (racemic) [Compound 183, 2-(((cis)-4-(((trans)-2-((E)-1-phenylbut-1-en-2-yl)cyclopropyl)amino)cyclohexyl)amino)acetic Acid] here?
Answer: Its IC50 is under 0.1 µM.

Question: COCC/C(=C\c1ccccc1)[C@@H]1C[C@H]1N[C@H]1CC[C@H](NCC(C)(C)C(=O)O)CC1 (racemic) [Compound 184, 3-(((trans)-4-(((trans)-2-((E)-4-methoxy-1-phenylbut-1-en-2-yl)cyclopropyl)amino)cyclohexyl)amino)-2,2-dimethylpropanoic Acid bis(trifluoroacetic Acid) Salt] was tested. Which IC50 did it give?
Answer: The IC50 was under 0.1 µM.

Question: For COCC/C(=C\c1ccccc1)[C@@H]1C[C@H]1NC1CCC(NCc2ccc(C(=O)O)nc2)CC1 (mixture of isomers) [Compound 185, 5-((((trans)-4-(((trans)-2-((E)-4-methoxy-1-phenylbut-1-en-2-yl)cyclopropyl)amino)cyclohexyl)amino)methyl)picolinic Acid bis(trifluoroacetic Acid) Salt], which IC50 is on record?
Answer: Its IC50 is under 0.1 µM.

Question: C/C(=C\c1ccccc1)[C@@H]1C[C@H]1NC1CCN(CC(=O)O)CC1 (racemic) [Compound 194, 2-(4-(((trans)-2-((E)-1-phenylprop-1-en-2-yl)cyclopropyl)amino)piperidin-1-yl)acetic Acid Dihydrochloride] was tested. Which IC50 did it give?
Answer: Its IC50 is under 0.1 µM.

Question: For C/C(=C\c1ccccc1)[C@@H]1C[C@H]1NC1CCN(CC(N)=O)CC1 (racemic) [Compound 196, 2-(4-(((trans)-2-((E)-1-phenylprop-1-en-2-yl)cyclopropyl)amino)piperidin-1-yl)acetamide Dihydrochloride], which IC50 is on record?
Answer: The IC50 was under 0.1 µM.

Question: How did the IC50 turn out when C/C(=C\c1ccccc1)[C@@H]1C[C@H]1NC1CCN(CCC(=O)N(C)C)CC1 (racemic) [Compound 198, N,N-dimethyl-3-(4-(((trans)-2-((E)-1-phenylprop-1-en-2-yl)cyclopropyl)amino)piperidin-1-yl)propanamide Dihydrochloride] was run?
Answer: Its IC50 is under 0.1 µM.
